Measured values reported in patent US20230013925A1, “Moraxella Treatment Using Cannabinoids” (BOTANIX PHARMACEUTICALLS LIMITED, priority 2019, published 2023).
Converted amounts (≈) assume the structure as drawn. Read-outs that look alike come from different tables or passages of the source.

Tested on: Moraxella catarrhalis
Experiment: Broth microdilution MIC testing (CLSI)
Format: cell-based
Conditions: for MIC: read-out: MIC (lowest concentration of drug that inhibited visible growth)
Method: In this study, to evaluate the spectrum of activity, cannabidiol (CBD) was profiled against Moraxella. Testing was conducted following guidelines recommended by the Clinical and Laboratory Standards Institute (CLSI, 1-4), using vancomycin, meropenem, levofloxacin, and gentamicin as comparators for testing aerobic bacteria.
Test agents were supplied by Micromyx. Stock solutions of all compounds were prepared on the first day of testing at 101× the highest test concentration using solvents recommended by CLSI. CBD was prepared fresh on each of testing.
Prior to testing, Moraxella were streaked from frozen vials onto Trypticase Soy Agar (TSA) with 5% sheep blood (Becton Dickinson [BD]; Sparks, Md.; Lot No. 9192895), and incubated at 35° C. overnight.
Cation-adjusted Mueller-Hinton broth (CAMHB; BD; Lot No. 8190586) was used for MIC testing.
MIC values were determined using a broth microdilution procedure described by CLSI (1-4). Automated liquid handlers (Multidrop 384, Labsystems, Helsinki, Finland; Biomek 2000 and Biomek FX, Beckman Coulter, Fullerton, Calif.) were used to conduct serial dilutions and liquid transfers.
To prepare the drug mother plates, which would provide the serial drug dilutions for the replicate daughter plates, the wells of columns 2 through 12 of standard 96-well microdilution plates (Costar 3795) were filled with 150 μl of the designated diluent for each row of drug. The test article and comparator compounds (300 μl at 101× the highest concentration to be tested) were dispensed into the appropriate wells in column 1. The Biomek 2000 was then used to make 2-fold serial dilutions in the mother plates from column 1 through column 11. The wells of column 12 contained no drug and served as the organism growth control wells for the assay.
The daughter plates were loaded with 190 μL per well of the appropriate test medium for the tested organism using the Multidrop 384. The daughter plates were completed on the Biomek FX instrument which transferred 2 μL of drug solution from each well of a mother plate to the corresponding well of each daughter plate in a single step.
A standardized inoculum of each test organism was prepared per CLSI methods (1-4). The inoculum for each organism was dispensed into sterile reservoirs divided by length (Beckman Coulter), and the Biomek 2000 was used to inoculate the plates. Daughter plates were placed on the Biomek 2000 work surface in reverse orientation so that inoculation took place from low to high drug concentration. Plates were inoculated with 10 μL of the inoculum resulting in a final cell density of approximately 5×10^5 CFU/mL per well.
The plates for testing of Moraxella were stacked 3 to 4 high, covered with a sterile lid, and incubated at 35° C. for the time periods specified in CLSI (1-4). Plates were incubated for approximately 16 to 20 hr. Following incubation, the microplates were removed from the incubator and viewed from the bottom using a plate viewer. […] The MIC was read and recorded as the lowest concentration of drug that inhibited visible growth of the organism.

[1] = Moraxella catarrhalis isolate MMX 3782, CAMHB, 35° C., approximately 16 to 20 hr

Compound | MIC [1] [mg/L] | other results
C[C@H]1COc2c(N3CCN(C)CC3)c(F)cc3c(=O)c(C(=O)O)cn1c23 [LVX, levofloxacin] | 0.03 (≈ 0.083 µM) | 
gentamicin |  | MIC (lowest concentration of drug that inhibited visible growth) [1]: 0.25 mg/L
C=C(C)C1CCC(C)=CC1c1c(O)cc(CCCCC)cc1O (centres unmarked) [CBD, 2-[3-methyl-6-(1-methylethenyl)-2-cyclohexen-1-yl]-5-pentyl-1,3-benzenediol] | 1 (≈ 3.18 µM) | 
C[C@@H](O)[C@H]1C(=O)N2C(C(=O)O)=C(S[C@@H]3CN[C@H](C(=O)N(C)C)C3)[C@H](C)[C@H]12 [MEM, meropenem] | ≤ 0.03 | 
CN[C@H](CC(C)C)C(=O)N[C@H]1C(=O)N[C@@H](CC(N)=O)C(=O)N[C@H]2C(=O)N[C@H]3C(=O)N[C@H](C(=O)N[C@H](C(=O)O)c4cc(O)cc(O)c4-c4cc3ccc4O)[C@H](O)c3ccc(c(Cl)c3)Oc3cc2cc(c3O[C@@H]2O[C@H](CO)[C@@H](O)[C@H](O)[C@H]2O[C@H]2C[C@](C)(N)[C@H](O)[C@H](C)O2)Oc2ccc(cc2Cl)[C@H]1O [VAN, vancomycin] |  | MIC (Moraxella catarrhalis): 32 mg/L (≈ 22.1 µM)
